Data reported in patent US20220267276A1, “NLRP MODULATORS” (Novartis AG, priority 2018, published 2022).

Legend:
[1] = test system: IL-1β production in PMA-differentiated THP-1 cells; assay: IL-1β production in PMA-differentiated THP-1 cells stimulated with gramicidin (hTHP-1 assay, 2% fetal bovine serum); type: cell-based, human
Method: THP-1 cells were purchased from the American Type Culture Collection and sub-cultured according to instructions from the supplier. Cells were cultured in complete RPMI 1640 (containing 10% heat inactivated FBS, penicillin (100 units/ml) and streptomycin (100 μg/ml)), and maintained in log phase prior to experimental setup. Prior to the experiment, compounds were dissolved in dimethyl sulfoxide (DMSO) to generate a 30 mM stock. The compound stock was first pre-diluted in DMSO to 3, 0.34, 0.042 and 0.0083 mM intermediate concentrations and subsequently spotted using Echo550 liquid handler into an empty 384-well assay plate to achieve desired final concentration (e.g. 100, 33, 11, 3,7, 1.2, 0.41, 0.14, 0.046, 0.015, 0.0051, 0.0017 μM). DMSO was backfilled in the plate to achieve a final DMSO assay concentration of 0.37%. The plate was then sealed and stored at room temperature until required. THP-1 cells were treated with PMA (Phorbol 12-myristate 13-acetate) (20 ng/ml) for 16-18 hours. On the day of the experiment the media was removed and adherent cells were detached with trypsin for 5 minutes. Cells were then harvested, washed with complete RPMI 1640, spun down, and resuspended in RPMI 1640 (containing 2% heat inactivated FBS, penicillin (100 units/ml) and streptomycin (100 μg/ml). The cells were plated in the 384-well assay plate containing the spotted compounds at a density of 50,000 cells/well (final assay volume 50 μl). Ceils were incubated with compounds for 1 hour and then stimulated with gramicidin (5 μM) (Enzo) for 2 hours. Plates were then centrifuged at 340 g for 5 min. Cell free supernatant (40 μL) was collected using a 96-channel PlateMaster (Gilson) and the production of IL-1β was evaluated by HTRF (cisbio). The plates were incubated for 18 h at 4° C. and read using the preset HTRF program (donor emission at 620 nm, acceptor emission at 668 nm) of the SpectraMax i3x spectrophotometer (Molecular Devices, software SoftMax 6). A vehicle only control and a dose titration of CRID3 (100-0.0017 μM) were run concurrently with each experiment. Data was normalized to vehicle-treated samples (equivalent to 0% inhibition) and CRID3 at 100 μM (equivalent to 100% inhibition).
Procedure 2: IL-1β Production in PMA-Differentiated THP-1 Cells Stimulated with Gramicidin
THP-1 cells were purchased from the American Type Culture Collection and sub-cultured according to instructions from the supplier. Prior to experiments, cells were cultured in complete RPMI 1640 (containing 10% heat inactivated FBS, penicillin (100 units/ml) and streptomycin (100 μg/ml)), and maintained in log phase prior to experimental setup. Prior to the experiment THP-1 were treated with PMA (Phorbol 12-myristate 13-acetate) (20 ng/mi) for 16-18 hours. Compounds were dissolved in dimethyl sulfoxide (DMSO) to generate a 30 mM stock. On the day of the experiment the media was removed and adherent cells were detached with trypsin for 5 minutes. Cells were then harvested, washed with complete RPMI 1640, spun down, resuspended in RPMI 1640 (containing 2% heat inactivated FBS, penicillin (100 units/ml) and streptomycin (100 μg/ml), The cells were plated in a 384-well plate at a density of 50,000 cells/well (final assay volume 50 μl). Compounds were first dissolved in assay medium to obtain a 5× top concentration of 500 μM. 10 step dilutions (1:3) were then undertaken in assay medium containing 1.67% DMSO. 5× compound solutions were added to the culture medium to achieve desired final concentration (e.g. 100, 33, 11, 3.7, 1.2, 0.41, 0.14, 0.046, 0.015, 0.0051, 0.0017 μM). Final DMSO concentration was at 0.37%. Cells were incubated with compounds for 1 hour and then stimulated with gramicidin (5 μM) (Enzo) for 2 hours. Plates were then centrifuged at 340 g for 5 min. Cell free supernatant (40 μL) was collected using a 96-channel PlateMaster (Gilson) and the production of IL-1β was evaluated by HTRF (cisbio). […]

[2] = Colon pharmacokinetics in mice; type: in vivo; details: colon to plasma concentration ratio at 8 h time point, 30 mg/kg oral gavage in 0.5% methyl-cellulose, Male C57BL/6 Mouse; for Kp at 8 h: read-out: Mouse TD Colon/Plasma @ 8
Method: Assay 2: Colon Pharmacokinetics in Mice
The test compound was formulated in 0.5% methyl-cellulose in water and dosed via oral gavage at 30 mg/kg to Male C57BL/6 Mouse. At various time points (typically 15 min, 30 min, 1, 2, 4, 6 and 8 h) post dosing, blood samples were removed via cardiac […] puncture and intact colons were excised from the […]. Blood samples were centrifuged at 1500 x g for 15 min to collect plasma. At the terminal time point each individual animal is anaesthetized, abdominal cavity is opened and from 2 cm below the caecum a 4 cm sample of the colon is dissected, cut open on the longitudinal axis and the solid contents removed by flushing with 2 mL of physiological fluid. The colon was further washed by putting it in 5 mL of physiological saline and shaken for 1 minute. The colon was pet dry weighed and transferred in 2 mL tubes. Colon will be weighted and homogenized with water by tissue weight (g) to water volume (mL) at ratio 1:3 before analysis. The actual concentration is the detected value multiplied by the dilution factor. A colon to plasma ratio was determined as the ratio of the colon cone, to the plasma cone, in pg hr/g, at 8 h time point.

[3] = Homo sapiens, THP-1, average IC50, hTHP-1 assay containing 2% fetal bovine serum, class symbols
[4] = Homo sapiens, THP-1, average IC50, hTHP-1 assay containing 2% fetal bovine serum, given as numeric bound
[5] = average IC50, hTHP-1 assay containing 2% fetal bovine serum, class symbols

Structure (SMILES)	IC50 [1, 3]	also measured
CC(C)(O)c1nc(CO)c(S(=O)(=O)NC(=O)Nc2c3c(nc4c2CCC4(C)C)CCC3)s1 [Compound 201]	0.2 to 1 µM	
CNS(=O)(=O)c1ccc(S(=O)(=O)NC(=O)Nc2c(C(C)C)cc(C#N)cc2C(C)C)c(CO)c1 [Compound 116]	0.2 to 1 µM	Mouse TD Colon/Plasma @ 8 [2]: 18,645
CC1CCc2c1nc1c(c2NC(=O)NS(=O)(=O)c2sc(C(C)(C)O)nc2CO)CCC1 (stereo not shown) [Compound 202]	0.2 to 1 µM	
CNS(=O)(=O)c1ccc(S(=O)(=O)NC(=O)Nc2c(C(C)C)cc(C#N)c(F)c2C(C)C)c(O)c1 [Compound 117]	0.04 to 0.2 µM	
O=C(CCCC[C@@H]1SC[C@@H]2NC(=O)N[C@@H]21)NCCCn1cc(CCC(=O)Nc2cccc(S(=O)(=O)NC(=O)Nc3c4c(cc5c3CCC5)CCC4)c2)nn1 [Compound 324]		IC50 [1, 4]: > 30 µM
CC(C)(O)c1nc(CO)c(S(=O)(=O)NC(=O)Nc2c3c(nc4c2CCC4)CCC3)s1 [Compound 111]	1 to 5 µM	
CC(C)c1cc(C#N)cc(C(C)C)c1NC(=O)NS(=O)(=O)c1sc(C(C)(C)O)nc1CO [Compound 101]	0.2 to 1 µM	Kp at 8 h [2]: 3000
CC(C)c1cc(C#N)cc(C2CC2)c1NC(=O)NS(=O)(=O)c1sc(C(C)(C)O)nc1CO [Compound 121]	1 to 5 µM	
CC(C)c1cc2c(c(C(C)C)c1NC(=O)NS(=O)(=O)c1sc(C(C)(C)O)nc1CO)COC2 [Compound 106]	0.2 to 1 µM	
CNS(=O)(=O)c1ccc(S(=O)(=O)NC(=O)Nc2c3c(cc4c2CCC4)CCC3)c(O)c1 [Compound 124]	5 to 30 µM	Kp at 8 h [2]: 26
CNS(=O)(=O)c1ccc(S(=O)(=O)NC(=O)Nc2c3c(nc4c2CCC4)CCC3)c(CO)c1 [Compound 103]	0.2 to 1 µM	
CC(C)c1cncc(C(C)C)c1NC(=O)NS(=O)(=O)c1sc(C(C)(C)O)nc1CO [Compound 104]	1 to 5 µM	
CC(C)(O)c1nc(CO)c(S(=O)(=O)NC(=O)Nc2c3c(c(C#N)c4c2CCC4)CCC3)s1 [Compound 122]	1 to 5 µM	Kp at 8 h [2]: 3530
CNS(=O)(=O)c1ccc(S(=O)(=O)NC(=O)Nc2c(C(C)C)cncc2C(C)C)c(CO)c1 [Compound 105]	1 to 5 µM	
CNS(=O)(=O)c1ccc(S(=O)(=O)NC(=O)Nc2c(C(C)C)cncc2C(C)C)cc1CO [Compound 109]	1 to 5 µM	
CNS(=O)(=O)c1ccc(S(=O)(=O)NC(=O)Nc2c(C(C)C)cc(C#N)c(F)c2C(C)C)c(OC)c1 [Compound 118]		Kp at 8 h [2]: 5950; IC50 [1, 5]: 0.2 to 1 µM

Structure (SMILES)	IC50 [1, 3]	also measured
CC(C)c1cc(C#N)cc(CCO)c1NC(=O)NS(=O)(=O)c1sc(C(C)(C)O)nc1CO [Compound 114]	5 to 30 µM	
CC(C)c1c(F)c(C#N)cc(C2CCOCC2)c1NC(=O)NS(=O)(=O)c1sc(C(C)(C)O)nc1CO [Compound 112]	1 to 5 µM	
CNS(=O)(=O)c1ccc(S(=O)(=O)NC(=O)Nc2c3c(nc4c2CCC4C)CCC3)c(CO)c1 (stereo not shown) [Compound 203]	1 to 5 µM	
CNS(=O)(=O)c1ccc(S(=O)(=O)NC(=O)Nc2c(C(C)C)cc(C#N)cc2C(C)C)c(C(=O)OC)c1 [Compound 115]	5 to 30 µM	
CC(C)c1cc(C#N)c(F)c(C(C)C)c1NC(=O)NS(=O)(=O)c1sc(C(C)(C)O)nc1CO [Compound 123]	0.2 to 1 µM	Mouse TD Colon/Plasma @ 8 [2]: 12,731
CNS(=O)(=O)c1ccc(S(=O)(=O)NC(=O)Nc2c(C(C)C)cc(C#N)c(F)c2C(C)C)c(OC)c1 [Compound 120]		IC50 [1, 5]: 0.04 to 0.2 µM
CCC(C)c1cc(C#N)c(F)c(C(C)C)c1NC(=O)NS(=O)(=O)c1sc(C(C)(C)O)nc1CO (stereo not shown) [Compound 113]	0.2 to 1 µM	Kp at 8 h [2]: 4560
CC(C)c1c(F)c(C#N)cc(C2CCOCC2)c1NC(=O)NS(=O)(=O)c1sc(C(C)(C)O)nc1CO [Compound 204]		IC50 [1, 4]: > 15 µM
CNS(=O)(=O)c1ccc(S(=O)(=O)NC(=O)Nc2c(C(C)C)cc(C#N)cc2C(C)C)c(O)c1 [Compound 119]	0.04 to 0.2 µM	
CC(C)c1cc(C#N)c(F)c(C(C)C)c1NC(=O)NS(=O)(=O)c1cc(C(C)(C)O)no1 [Compound 301]	0.2 to 1 µM	
COC(=O)c1sc2c(c1NC(=O)NS(=O)(=O)c1ncc(C(C)(C)O)s1)CCCC2 [Compound 304]	5 to 30 µM	
CC(C)c1nc(-c2cccc(C(F)(F)F)c2)c(F)c(C(C)C)c1NC(=O)NS(=O)(=O)c1sc(C(C)(C)O)nc1CO[Si](C)(C)C(C)(C)C [Compound 107]		IC50 ([1]; Homo sapiens, THP-1): 1 to 5 µM
Cc1cc(C(=O)NCCc2ccc(S(=O)(=O)NC(=O)Nc3c(C(C)C)cc(C#N)cc3C(C)C)cc2)no1 [Compound 302]		IC50 [1, 4]: > 30 µM
CC(C)c1cc(C#N)c(F)c(C(C)C)c1NC(=O)NS(=O)(=O)c1sc(C(C)(C)O)nc1CCO [Compound 102]	0.04 to 0.2 µM	Kp at 8 h [2]: 802
CNS(=O)(=O)c1ccc(S(=O)(=O)NC(=O)Nc2c3c(nc4c2CCC4)CCC3)c(OC)c1 [Compound 108]	1 to 5 µM	
Cc1cc(C(=O)NCCc2ccc(S(=O)(=O)NC(=O)Nc3c4c(cc5c3CCC5)CCC4)cc2)no1 [Compound 303]		IC50 [1, 4]: > 30 µM
